Laboratory results from US12343326B2, “Psychoactive medicines and their use for treating psychiatric and neurological conditions and disorders” (Transcend Therapeutics, Inc., priority 2021, dated 2025).

Key:
Assay in all cases: β-arrestin based GPCR screen (PathHunter / GPCRmax), antagonist mode
168 GPCRs [1] = molecular target: 168 GPCRs (Homo sapiens, UniProt Q92847); details: GHSR
168 GPCRs [2] = molecular target: 168 GPCRs (Homo sapiens, UniProt P11229); details: CHRM1, Antagonist
168 GPCRs [3] = molecular target: 168 GPCRs (Homo sapiens, UniProt P49682)
Sequence of 168 GPCRs (Homo sapiens, UniProt P49682) (P49682 whole entry): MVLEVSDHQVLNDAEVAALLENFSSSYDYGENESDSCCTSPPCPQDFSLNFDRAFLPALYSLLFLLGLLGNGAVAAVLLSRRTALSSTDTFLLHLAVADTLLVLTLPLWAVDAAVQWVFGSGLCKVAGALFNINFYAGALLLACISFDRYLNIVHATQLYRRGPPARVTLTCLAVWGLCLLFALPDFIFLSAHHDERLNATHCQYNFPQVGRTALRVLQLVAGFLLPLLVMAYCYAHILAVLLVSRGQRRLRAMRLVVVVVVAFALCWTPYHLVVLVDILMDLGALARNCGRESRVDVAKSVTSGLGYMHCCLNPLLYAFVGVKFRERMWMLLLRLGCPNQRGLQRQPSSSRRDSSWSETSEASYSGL

168 GPCRs [4] = molecular target: 168 GPCRs (Homo sapiens, UniProt P47871); details: GCGR
168 GPCRs [5] = molecular target: 168 GPCRs (Homo sapiens, UniProt P43116)
Sequence of 168 GPCRs (Homo sapiens, UniProt P43116) (P43116 whole entry): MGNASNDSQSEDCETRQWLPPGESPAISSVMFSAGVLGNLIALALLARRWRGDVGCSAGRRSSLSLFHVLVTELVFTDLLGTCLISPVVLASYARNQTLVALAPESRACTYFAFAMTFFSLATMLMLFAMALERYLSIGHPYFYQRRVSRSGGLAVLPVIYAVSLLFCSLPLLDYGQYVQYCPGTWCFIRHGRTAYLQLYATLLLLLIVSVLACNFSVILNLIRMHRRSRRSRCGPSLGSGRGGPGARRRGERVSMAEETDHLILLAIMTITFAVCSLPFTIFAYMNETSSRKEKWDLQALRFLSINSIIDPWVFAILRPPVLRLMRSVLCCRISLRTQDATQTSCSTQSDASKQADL

168 GPCRs [6] = molecular target: 168 GPCRs (Homo sapiens, UniProt P49190)
Sequence of 168 GPCRs (Homo sapiens, UniProt P49190) (P49190 25-550): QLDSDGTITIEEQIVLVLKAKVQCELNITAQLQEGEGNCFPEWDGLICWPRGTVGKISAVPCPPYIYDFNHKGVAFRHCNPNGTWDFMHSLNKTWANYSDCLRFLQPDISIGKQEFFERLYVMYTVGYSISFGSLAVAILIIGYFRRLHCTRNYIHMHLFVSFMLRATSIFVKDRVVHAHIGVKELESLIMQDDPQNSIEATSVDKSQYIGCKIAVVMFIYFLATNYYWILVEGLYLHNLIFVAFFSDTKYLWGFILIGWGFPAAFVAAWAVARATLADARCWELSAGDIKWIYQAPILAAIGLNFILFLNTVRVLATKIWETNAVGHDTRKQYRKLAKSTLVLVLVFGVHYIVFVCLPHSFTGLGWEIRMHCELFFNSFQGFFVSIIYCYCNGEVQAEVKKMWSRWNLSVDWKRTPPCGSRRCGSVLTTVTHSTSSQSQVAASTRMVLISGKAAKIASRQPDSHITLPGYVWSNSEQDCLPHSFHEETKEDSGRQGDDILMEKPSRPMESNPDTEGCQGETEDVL

168 GPCRs [7] = molecular target: 168 GPCRs (Homo sapiens, UniProt P25929); details: NPY1R
168 GPCRs [8] = molecular target: 168 GPCRs (Homo sapiens, UniProt P30988); details: Antagonist
Sequence of 168 GPCRs (Homo sapiens, UniProt P30988) (P30988 25-474): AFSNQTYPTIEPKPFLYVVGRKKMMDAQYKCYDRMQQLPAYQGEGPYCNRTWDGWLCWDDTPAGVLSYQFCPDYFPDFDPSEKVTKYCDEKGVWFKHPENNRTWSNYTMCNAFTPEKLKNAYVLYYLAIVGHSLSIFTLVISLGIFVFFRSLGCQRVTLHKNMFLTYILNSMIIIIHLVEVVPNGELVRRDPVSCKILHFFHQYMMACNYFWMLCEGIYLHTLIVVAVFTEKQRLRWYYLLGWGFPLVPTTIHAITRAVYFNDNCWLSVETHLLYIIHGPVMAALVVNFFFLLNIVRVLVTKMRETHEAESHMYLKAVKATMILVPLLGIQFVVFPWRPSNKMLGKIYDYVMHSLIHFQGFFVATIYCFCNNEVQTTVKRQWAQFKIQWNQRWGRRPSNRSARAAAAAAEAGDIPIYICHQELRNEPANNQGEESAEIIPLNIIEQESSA

168 GPCRs [9] = molecular target: 168 GPCRs (Homo sapiens, UniProt Q9H3N8)
168 GPCRs [10] = molecular target: 168 GPCRs (Homo sapiens, UniProt P32241)
168 GPCRs [11] = molecular target: 168 GPCRs (Homo sapiens, UniProt Q96LB2)
Sequence of 168 GPCRs (Homo sapiens, UniProt Q96LB2) (Q96LB2 whole entry): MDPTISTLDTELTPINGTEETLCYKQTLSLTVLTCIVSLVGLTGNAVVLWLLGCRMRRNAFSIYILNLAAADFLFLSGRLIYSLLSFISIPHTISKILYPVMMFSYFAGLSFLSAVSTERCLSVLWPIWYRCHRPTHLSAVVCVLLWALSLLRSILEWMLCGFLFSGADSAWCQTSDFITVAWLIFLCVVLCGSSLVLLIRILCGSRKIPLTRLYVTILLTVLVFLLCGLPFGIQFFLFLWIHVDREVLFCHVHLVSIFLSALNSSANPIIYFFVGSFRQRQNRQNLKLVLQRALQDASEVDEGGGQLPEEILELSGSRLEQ

168 GPCRs [12] = molecular target: 168 GPCRs (Homo sapiens, UniProt P08912); details: CHRM5, Antagonist
168 GPCRs [13] = molecular target: 168 GPCRs (Homo sapiens, UniProt P41145)
168 GPCRs [14] = test system: 168 GPCRs
168 GPCRs [15] = molecular target: 168 GPCRs (Homo sapiens, UniProt P28566); details: HTR1E
168 GPCRs [16] = molecular target: 168 GPCRs (Homo sapiens, UniProt P41143)
Sequence of 168 GPCRs (Homo sapiens, UniProt P41143) (P41143 whole entry): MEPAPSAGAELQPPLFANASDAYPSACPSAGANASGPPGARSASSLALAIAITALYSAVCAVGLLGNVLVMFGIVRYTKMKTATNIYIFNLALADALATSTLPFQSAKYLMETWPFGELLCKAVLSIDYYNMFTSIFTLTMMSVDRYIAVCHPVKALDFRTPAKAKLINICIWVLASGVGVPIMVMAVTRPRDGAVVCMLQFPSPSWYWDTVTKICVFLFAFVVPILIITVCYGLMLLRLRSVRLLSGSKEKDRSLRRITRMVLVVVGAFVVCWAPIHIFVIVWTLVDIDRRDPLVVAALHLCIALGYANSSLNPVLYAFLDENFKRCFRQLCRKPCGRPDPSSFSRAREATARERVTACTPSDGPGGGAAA

168 GPCRs [17] = molecular target: 168 GPCRs (Homo sapiens, UniProt P33032); details: MC5R
Sequence of 168 GPCRs (Homo sapiens, UniProt P33032) (P33032 whole entry): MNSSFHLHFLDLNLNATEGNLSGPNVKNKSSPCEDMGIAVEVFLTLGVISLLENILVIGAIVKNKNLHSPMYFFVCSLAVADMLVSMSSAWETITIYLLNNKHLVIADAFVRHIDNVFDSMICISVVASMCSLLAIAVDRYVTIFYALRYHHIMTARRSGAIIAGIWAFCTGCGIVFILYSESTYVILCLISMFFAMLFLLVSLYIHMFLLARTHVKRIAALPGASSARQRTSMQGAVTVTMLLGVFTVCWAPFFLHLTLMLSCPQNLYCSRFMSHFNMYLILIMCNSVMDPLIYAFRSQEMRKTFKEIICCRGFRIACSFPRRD

168 GPCRs [18] = molecular target: 168 GPCRs (Homo sapiens, UniProt O95977)
Sequence of 168 GPCRs (Homo sapiens, UniProt O95977) (O95977 whole entry): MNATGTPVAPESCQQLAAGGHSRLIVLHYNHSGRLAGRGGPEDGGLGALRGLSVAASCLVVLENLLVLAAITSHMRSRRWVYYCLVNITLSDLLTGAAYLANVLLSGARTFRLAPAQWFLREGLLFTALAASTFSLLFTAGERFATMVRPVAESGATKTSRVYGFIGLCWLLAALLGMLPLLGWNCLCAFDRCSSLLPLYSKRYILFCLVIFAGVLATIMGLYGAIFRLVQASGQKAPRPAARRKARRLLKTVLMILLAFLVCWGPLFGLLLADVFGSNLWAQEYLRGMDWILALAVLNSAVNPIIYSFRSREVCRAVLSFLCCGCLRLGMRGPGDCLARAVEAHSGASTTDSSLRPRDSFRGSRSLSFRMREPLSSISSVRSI

168 GPCRs [19] = molecular target: 168 GPCRs (Homo sapiens, UniProt Q13324)
Sequence of 168 GPCRs (Homo sapiens, UniProt Q13324) (Q13324 whole entry): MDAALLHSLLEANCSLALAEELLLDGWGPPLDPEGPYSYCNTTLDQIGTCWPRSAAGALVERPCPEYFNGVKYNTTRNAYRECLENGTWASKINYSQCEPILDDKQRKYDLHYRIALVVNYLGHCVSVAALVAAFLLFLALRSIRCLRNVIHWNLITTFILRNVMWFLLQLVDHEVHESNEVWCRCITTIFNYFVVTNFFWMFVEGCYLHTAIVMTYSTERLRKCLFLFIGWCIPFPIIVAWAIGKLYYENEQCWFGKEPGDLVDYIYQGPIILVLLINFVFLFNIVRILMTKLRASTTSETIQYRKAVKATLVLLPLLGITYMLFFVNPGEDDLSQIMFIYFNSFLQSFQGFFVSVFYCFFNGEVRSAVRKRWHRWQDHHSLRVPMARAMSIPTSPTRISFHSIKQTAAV

168 GPCRs [20] = molecular target: 168 GPCRs (Homo sapiens, UniProt P30989)
168 GPCRs [21] = molecular target: 168 GPCRs (Homo sapiens, UniProt P41597); details: CCR2, Antagonist
168 GPCRs [22] = molecular target: 168 GPCRs (Homo sapiens, UniProt P21554)
Sequence of 168 GPCRs (Homo sapiens, UniProt P21554) (P21554 whole entry): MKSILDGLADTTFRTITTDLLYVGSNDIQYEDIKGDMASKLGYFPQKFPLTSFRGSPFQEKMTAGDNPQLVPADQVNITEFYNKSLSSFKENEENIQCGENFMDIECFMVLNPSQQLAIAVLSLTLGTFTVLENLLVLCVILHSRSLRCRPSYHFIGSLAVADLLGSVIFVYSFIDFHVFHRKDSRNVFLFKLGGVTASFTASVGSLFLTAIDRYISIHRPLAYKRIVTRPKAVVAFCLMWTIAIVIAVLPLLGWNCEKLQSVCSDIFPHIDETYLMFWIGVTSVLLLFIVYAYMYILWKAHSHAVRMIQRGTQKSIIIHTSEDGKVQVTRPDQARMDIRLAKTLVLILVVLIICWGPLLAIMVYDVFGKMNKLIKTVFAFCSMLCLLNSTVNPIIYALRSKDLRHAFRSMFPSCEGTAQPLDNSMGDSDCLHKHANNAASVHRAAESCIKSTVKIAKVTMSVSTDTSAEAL

Sequence of 168 GPCRs (Homo sapiens, UniProt Q92847) (Q92847 whole entry): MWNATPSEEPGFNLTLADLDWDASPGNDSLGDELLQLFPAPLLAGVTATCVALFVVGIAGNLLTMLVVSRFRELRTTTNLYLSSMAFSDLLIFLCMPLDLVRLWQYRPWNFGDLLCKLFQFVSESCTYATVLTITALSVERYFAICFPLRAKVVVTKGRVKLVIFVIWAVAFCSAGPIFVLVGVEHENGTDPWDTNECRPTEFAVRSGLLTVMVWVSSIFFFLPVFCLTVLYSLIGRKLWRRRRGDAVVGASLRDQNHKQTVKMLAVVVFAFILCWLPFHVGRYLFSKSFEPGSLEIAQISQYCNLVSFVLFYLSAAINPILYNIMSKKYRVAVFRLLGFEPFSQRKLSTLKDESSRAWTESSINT
Sequence of 168 GPCRs (Homo sapiens, UniProt P11229) (P11229 whole entry): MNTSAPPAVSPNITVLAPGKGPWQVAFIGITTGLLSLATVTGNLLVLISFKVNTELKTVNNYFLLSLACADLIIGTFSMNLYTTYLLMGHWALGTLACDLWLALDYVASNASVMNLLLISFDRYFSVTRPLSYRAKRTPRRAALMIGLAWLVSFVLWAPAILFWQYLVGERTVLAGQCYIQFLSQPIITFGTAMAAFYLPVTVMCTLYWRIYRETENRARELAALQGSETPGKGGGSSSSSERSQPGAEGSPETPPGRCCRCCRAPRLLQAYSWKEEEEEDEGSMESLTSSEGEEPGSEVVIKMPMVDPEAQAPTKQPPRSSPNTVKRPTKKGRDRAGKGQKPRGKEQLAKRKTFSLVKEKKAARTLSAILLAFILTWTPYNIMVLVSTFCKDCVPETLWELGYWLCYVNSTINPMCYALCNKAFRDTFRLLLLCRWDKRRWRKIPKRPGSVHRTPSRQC

CNC(C)C(=O)c1ccc2c(c1)OCO2 (stereo not drawn) [methylone, 3,4-methylenedioxy-N-methylcathinone]
activity at 10 µM (168 GPCRs [1]; Antagonist mode, 10 uM): 9.1%
activity at 1 µM (168 GPCRs [1]; Antagonist, 1 uM): 25.8%
activity at 1 µM (168 GPCRs [2]; 1 uM): 15.8%
activity at 10 µM (168 GPCRs [2]; 10 uM): 2%
activity at 10 µM (168 GPCRs [3]; CXCR3, Antagonist mode, 10 uM): -3.9%
activity at 1 µM (168 GPCRs [3]; CXCR3, Antagonist, 1 uM): 4.5%
activity at 10 µM (168 GPCRs [4]; Antagonist mode, 10 uM): -7.7%
activity at 1 µM (168 GPCRs [4]; Antagonist, 1 uM): -16%
activity at 10 µM (168 GPCRs [5]; PTGER2, Antagonist mode, 10 uM): -4.4%
activity at 1 µM (168 GPCRs [5]; PTGER2, Antagonist, 1 uM): 12.7%
activity at 10 µM (168 GPCRs [6]; PTHR2, Antagonist mode, 10 uM): -0.2%
activity at 1 µM (168 GPCRs [6]; PTHR2, Antagonist, 1 uM): -1%
activity at 10 µM (168 GPCRs [7]; Antagonist mode, 10 uM): 5.4%
activity at 1 µM (168 GPCRs [7]; Antagonist, 1 uM): 0.2%
activity at 1 µM (168 GPCRs [8]; CALCR-RAMP2): -10.6%
activity at 10 µM (168 GPCRs [8]; CALCR-RAMP2): -19.6%
activity at 1 µM (168 GPCRs [8]; CALCR-RAMP3): -8.9%
activity at 10 µM (168 GPCRs [8]; CALCR-RAMP3): 3.3%
activity at 1 µM (168 GPCRs [8]; CALCR): 5.4%
activity at 10 µM (168 GPCRs [8]; CALCR): -4.4%
activity at 10 µM (168 GPCRs [9]; HRH4, Antagonist mode, 10 uM): -14%
activity at 1 µM (168 GPCRs [9]; HRH4, Antagonist, 1 uM): -11.6%
activity at 10 µM (168 GPCRs [10]; VIPR1, Antagonist mode, 10 uM): 5.3%
activity at 1 µM (168 GPCRs [10]; VIPR1, Antagonist, 1 uM): -0.7%
activity at 10 µM (168 GPCRs [11]; MRGPRX1, Antagonist mode, 10 uM): -10.2%
activity at 1 µM (168 GPCRs [11]; MRGPRX1, Antagonist, 1 uM): -6.5%
activity at 1 µM (168 GPCRs [12]; 1 uM): -8%
activity at 10 µM (168 GPCRs [12]; 10 uM): -7.6%
activity at 10 µM (168 GPCRs [13]; OPRK1, Antagonist mode, 10 uM): 10.4%
activity at 1 µM (168 GPCRs [13]; OPRK1, Antagonist, 1 uM): 11.8%
antagonist activity at any of the 168 GPCRs (criterion >50% inhibition) (168 GPCRs [14]; 1 and 10 micromolar): did not meet criteria for agonist or antagonist activity
% Activity (168 GPCRs [14]; DRD2S, Antagonist mode, 10 uM): −11.6%
% Activity (168 GPCRs [14]; DRD2S, Antagonist, 1 uM): 3.6%
% Activity (168 GPCRs [14]; NPSR1b, Antagonist mode, 10 uM): −7.6%
% Activity (168 GPCRs [14]; NPSR1b, Antagonist, 1 uM): −10.6%
activity at 10 µM (168 GPCRs [15]; Antagonist mode, 10 uM): 13.2%
activity at 1 µM (168 GPCRs [15]; Antagonist, 1 uM): 7.6%
activity at 10 µM (168 GPCRs [16]; OPRD1, Antagonist mode, 10 uM): 3.5%
activity at 1 µM (168 GPCRs [16]; OPRD1, Antagonist, 1 uM): -2.7%
activity at 10 µM (168 GPCRs [17]; Antagonist mode, 10 uM): -6.3%
activity at 1 µM (168 GPCRs [17]; Antagonist, 1 uM): 1.7%
activity at 10 µM (168 GPCRs [18]; EDG6, Antagonist mode, 10 uM): 7.8%
activity at 1 µM (168 GPCRs [18]; EDG6, Antagonist, 1 uM): 13.2%
activity at 10 µM (168 GPCRs [19]; CRHR2, Antagonist mode, 10 uM): -0.3%
activity at 1 µM (168 GPCRs [19]; CRHR2, Antagonist, 1 uM): -2%
activity at 10 µM (168 GPCRs [20]; NTSR1, Antagonist mode, 10 uM): -1.7%
activity at 1 µM (168 GPCRs [20]; NTSR1, Antagonist, 1 uM): -0.7%
activity at 1 µM (168 GPCRs [21]; 1 uM): 2%
activity at 10 µM (168 GPCRs [21]; 10 uM): 4.9%
activity at 10 µM (168 GPCRs [22]; CNR1, Antagonist mode, 10 uM): -17.1%
activity at 1 µM (168 GPCRs [22]; CNR1, Antagonist, 1 uM): -3.5%
